Source: patent US10093656B2, “Fused-ring or tricyclic aryl pyrimidine compound used as kinase inhibitor” (NANJING SANHOME PHARMACEUTICAL CO., LTD, priority 2015, dated 2018)

Key:
EGFR wild type = molecular target: T1, EGFR wild type (Homo sapiens, UniProt P00533); test: Wild-type EGFR enzyme HTRF inhibition assay; assay type: biochemical; conditions: 25 μM ATP, read-out: EGFR WT IC50
T1 construct: purchased Life technology (Madison, Wis.)
Description: (§1) Enzyme: EGFR wild type, EGFR T790M/L858R, EGFR T790M and INSR were purchased from Life technology (Madison, Wis.), EGFR d746-750/T790M was purchased from Carna Biosciences (Japan).
(§2) HTRF Kit was purchased from Cis-Bio International which contained the Eu-labeled TK1 antibody, XL665 and biotin-labeled TK1 polypeptide substrates.
(§3) Detecting instrument: Envision (PerkinElmer).
(§4) The test compound was diluted 3-fold to obtain 10 doses of which the final concentration was from 300 nM to 0.015 nM.
Wild-Type EGFR Enzyme Reaction Mixture System:
0.05 nM Wild-type EGFR, 1 μM biotin-TK1 peptide, 25 μM ATP enzyme buffer, a total of which was 10 μL. The reaction plate was white Proxiplate 384-Plus plate (PerkinElmer) and the mixture was reacted at 23° C. for 60 minutes.
(§5) Reaction Detection: 10 μL of detection reagent containing Antibody 2 nM and XL665 62.5 nM was added, and the reagent was incubated at 23° C. for 60 minutes. The plates were read by Envision.
(§6) The reading is converted to the suppression rate (%) by the following formula […]/(Max-Min)*100%. IC50 Data was measured by four-parameter curve fitting (Model 205 in XLFITS, IDBS).

EGFR T790M/L858R = molecular target: T2, EGFR T790M/L858R (Homo sapiens, UniProt P00533, L858R/T790M); test: EGFR T790M/L858R enzyme HTRF inhibition assay; assay type: biochemical; conditions: 20 μM ATP, read-out: EGFR L858R/T79M IC50
T2 construct: purchased Life technology (Madison, Wis.)
T2 sequence (P00533 25-1210 T790M/L858R): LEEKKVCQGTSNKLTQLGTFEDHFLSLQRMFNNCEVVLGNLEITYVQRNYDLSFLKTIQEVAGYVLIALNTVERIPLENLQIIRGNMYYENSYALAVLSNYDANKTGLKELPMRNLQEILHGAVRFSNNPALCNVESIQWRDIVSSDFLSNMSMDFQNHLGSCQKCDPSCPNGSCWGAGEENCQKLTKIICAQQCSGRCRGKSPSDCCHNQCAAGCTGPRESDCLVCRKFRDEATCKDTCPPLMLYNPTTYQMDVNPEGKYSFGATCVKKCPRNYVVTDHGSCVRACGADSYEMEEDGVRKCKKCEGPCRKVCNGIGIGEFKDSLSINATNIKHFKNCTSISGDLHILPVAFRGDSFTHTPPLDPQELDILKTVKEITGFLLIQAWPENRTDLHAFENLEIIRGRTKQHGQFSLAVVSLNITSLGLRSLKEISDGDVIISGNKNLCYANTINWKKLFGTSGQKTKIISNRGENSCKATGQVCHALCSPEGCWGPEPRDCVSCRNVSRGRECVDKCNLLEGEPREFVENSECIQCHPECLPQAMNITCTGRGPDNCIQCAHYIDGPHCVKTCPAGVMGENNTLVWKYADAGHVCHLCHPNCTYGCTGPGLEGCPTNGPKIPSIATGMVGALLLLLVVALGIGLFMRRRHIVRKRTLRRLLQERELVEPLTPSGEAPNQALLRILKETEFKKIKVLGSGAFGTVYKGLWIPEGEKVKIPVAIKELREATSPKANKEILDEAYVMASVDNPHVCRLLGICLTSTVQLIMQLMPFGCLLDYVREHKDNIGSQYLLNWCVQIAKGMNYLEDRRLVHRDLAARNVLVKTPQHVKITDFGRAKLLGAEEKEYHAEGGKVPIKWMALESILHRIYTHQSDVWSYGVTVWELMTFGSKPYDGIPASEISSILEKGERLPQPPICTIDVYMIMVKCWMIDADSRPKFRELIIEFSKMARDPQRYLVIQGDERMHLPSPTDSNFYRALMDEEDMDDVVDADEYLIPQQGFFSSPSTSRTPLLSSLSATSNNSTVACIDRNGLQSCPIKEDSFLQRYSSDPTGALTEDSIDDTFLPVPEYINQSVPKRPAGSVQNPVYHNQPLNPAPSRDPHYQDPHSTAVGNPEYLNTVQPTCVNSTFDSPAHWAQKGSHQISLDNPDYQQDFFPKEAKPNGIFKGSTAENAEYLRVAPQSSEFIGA
Description: as §1, §2, §3, §4
EGFR T790M/L858R Enzyme Reaction Mixture System:
0.04 nM EGFR T790M/L858R, 1 μM biotin-TK1 peptide, 20 μM ATP enzyme buffer, a total of which was 10 μL. The reaction plate was white Proxiplate 384-Plus plate (PerkinElmer) and the mixture was reacted at 23° C. for 60 minutes.
as §5, §6

EGFR d746-750/T790M = molecular target: T3, EGFR d746-750/T790M (Homo sapiens, UniProt P00533, DEL746-750/T790M); test: EGFR d746-750/T790M enzyme HTRF inhibition assay; assay type: biochemical; conditions: 40 μM ATP
T3 construct: purchased Carna Biosciences (Japan)
T3 sequence (P00533 with tags, fused parts or gaps DEL746-750/T790M limits assumed): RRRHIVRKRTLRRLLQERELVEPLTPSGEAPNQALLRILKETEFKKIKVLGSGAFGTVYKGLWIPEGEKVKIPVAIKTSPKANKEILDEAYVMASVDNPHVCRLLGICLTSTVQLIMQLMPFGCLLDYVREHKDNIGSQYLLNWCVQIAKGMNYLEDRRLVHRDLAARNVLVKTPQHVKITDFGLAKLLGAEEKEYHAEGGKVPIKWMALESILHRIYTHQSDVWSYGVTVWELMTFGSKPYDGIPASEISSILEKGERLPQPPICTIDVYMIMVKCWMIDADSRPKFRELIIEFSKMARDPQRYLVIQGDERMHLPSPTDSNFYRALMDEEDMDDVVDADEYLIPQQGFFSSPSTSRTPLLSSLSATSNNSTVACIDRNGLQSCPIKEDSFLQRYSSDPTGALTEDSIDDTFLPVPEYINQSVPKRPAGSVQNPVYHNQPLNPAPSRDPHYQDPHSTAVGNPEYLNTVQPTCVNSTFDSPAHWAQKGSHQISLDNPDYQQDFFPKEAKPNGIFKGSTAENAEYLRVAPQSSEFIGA
Description: as §1, §2, §3, §4
EGFR d746-750/T790M Enzyme Reaction Mixture System:
0.025 nM EGFR d746-750/T790M, 1 μM biotin-TK1 peptide, 40 μM ATP enzyme buffer, a total of which was 10 μL. The reaction plate was white Proxiplate 384-Plus plate (PerkinElmer) and the mixture was reacted at 23° C. for 60 minutes.
as §5, §6

[1] = test system: NCI-H1975 cells EGFR L858R/T790M; test: NCI-H1975 cell viability assay (Cell Titer-Glo, 6 days); assay type: cell-based; conditions: Homo sapiens, 144 h
Description: (§7) RPMI1640, fetal bovine serum, penicillin/streptomycin solution were purchased from Life Technology (Madison, Wis.). Cell Titer-Glo luminescent cell viability reagents were purchased from Promega (Madison, Wis.). A431 cell line and NCI-H1975 cell line were purchased from European Collection of Cell Cultures (ECACC). Plate Reader Instrument: Envision (PerkinElmer).
(§8) 384-Well plates, 300 of A431 cells and NCI-H1975 cells were inoculated per well, a volume of which was 45 μL. And the plates were incubated overnight in a CO2 incubator at 37° C. The test compound was diluted 3-fold to obtain 10 dose concentrations, the final concentrations of which were from 10 μM to 0.508 nM, two wells. The middle plates were filled with 49 μL of medium per well. 1 μL of compound in the gradient dilution compound plates was transferred to the middle plates and mixed well. And then 5 μL liquid in the middle plates was taken to the cell plates. The cells were incubated in a CO2 incubator for 6 days. After 6 days, 25 μL of detection reagents was added. And then the mixture was incubated at room temperature for 10 minutes and the plates were read by Envision.
(§9) The reading is converted to the suppression rate by the following formula (%) (Max-Sample)/(Max-Min)*100%. IC50 Data was measured by Four-parameter curve fitting (Model 205 in XLFIT5, IDBS).

A431 cells EGFR WT = test: A431 cell viability assay (Cell Titer-Glo, 6 days); assay type: cell-based, human; conditions: for IC50: Homo sapiens, A-431, 144 h, A431 cells, 6 days; for A431:NCI-H1975 (ratio): ratio of cell IC50 A431 to NCI-H1975
Description: as §7, §8, §9

INSR = molecular target: T4, INSR (Homo sapiens, UniProt P06213); test: INSR enzyme HTRF inhibition assay; assay type: biochemical; conditions: 35 μM ATP, read-out: INSR_IC50
T4 construct: purchased Life technology (Madison, Wis.)
T4 sequence (P06213 28-1382): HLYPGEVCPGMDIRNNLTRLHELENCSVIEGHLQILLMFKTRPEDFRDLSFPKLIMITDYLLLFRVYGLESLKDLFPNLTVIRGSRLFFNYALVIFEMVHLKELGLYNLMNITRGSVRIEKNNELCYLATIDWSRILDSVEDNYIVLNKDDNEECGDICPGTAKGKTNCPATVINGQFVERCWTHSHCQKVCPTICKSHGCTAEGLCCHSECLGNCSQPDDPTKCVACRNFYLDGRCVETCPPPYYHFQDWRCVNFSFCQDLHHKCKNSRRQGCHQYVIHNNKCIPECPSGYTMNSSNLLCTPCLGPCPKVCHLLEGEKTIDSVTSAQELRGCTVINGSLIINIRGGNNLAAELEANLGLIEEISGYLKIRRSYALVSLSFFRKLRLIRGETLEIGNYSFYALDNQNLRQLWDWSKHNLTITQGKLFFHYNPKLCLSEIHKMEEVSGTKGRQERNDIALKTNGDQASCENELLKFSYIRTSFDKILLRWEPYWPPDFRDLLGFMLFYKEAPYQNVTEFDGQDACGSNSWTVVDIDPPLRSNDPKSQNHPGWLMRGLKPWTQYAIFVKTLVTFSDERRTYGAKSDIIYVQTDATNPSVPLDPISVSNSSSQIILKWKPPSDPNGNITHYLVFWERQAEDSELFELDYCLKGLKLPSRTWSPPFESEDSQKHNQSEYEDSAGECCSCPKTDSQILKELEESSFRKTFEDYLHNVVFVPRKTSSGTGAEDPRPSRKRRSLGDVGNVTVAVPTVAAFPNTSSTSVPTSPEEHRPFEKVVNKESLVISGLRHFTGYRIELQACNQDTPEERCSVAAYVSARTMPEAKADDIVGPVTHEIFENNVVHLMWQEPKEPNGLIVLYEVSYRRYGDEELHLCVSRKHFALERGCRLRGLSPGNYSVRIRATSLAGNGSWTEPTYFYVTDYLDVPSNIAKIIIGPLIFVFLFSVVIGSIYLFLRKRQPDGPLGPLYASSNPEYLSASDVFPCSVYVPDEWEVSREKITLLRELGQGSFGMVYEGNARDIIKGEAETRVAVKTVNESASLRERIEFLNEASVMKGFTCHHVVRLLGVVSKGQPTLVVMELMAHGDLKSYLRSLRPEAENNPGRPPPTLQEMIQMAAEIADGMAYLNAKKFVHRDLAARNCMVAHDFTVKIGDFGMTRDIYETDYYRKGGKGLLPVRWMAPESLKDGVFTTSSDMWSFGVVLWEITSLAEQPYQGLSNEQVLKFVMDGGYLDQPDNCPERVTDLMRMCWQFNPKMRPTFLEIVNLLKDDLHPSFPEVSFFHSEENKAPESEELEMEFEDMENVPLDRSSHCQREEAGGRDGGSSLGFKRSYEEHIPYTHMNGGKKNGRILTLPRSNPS
Description: as §1, §2, §3, §4
INSR Enzyme Reaction Mixture System:
0.5 nM INSR, 1 μM biotin-TK1 peptide, 35 μM ATP enzyme buffer, a total of which was 10 μL. The reaction plate was white Proxiplate 384-Plus plate (PerkinElmer) and the mixture was reacted at 23° C. for 60 minutes.
as §5, §6

[2] = test system: NCI-H1975 lung cancer patient-derived xenograft (CDX); test: Pharmacodynamics study in vivo, NCI-H1975 xenograft (CDX) model; set-up: species or system BALB/c nude mice; conditions: AZD9291 5 mg/kg; for Tumor Volume (mm^3) 4 days: day 4, oral daily: compound 30 10 mg/kg, 33, 34, 40, 42, 43 20 mg/kg; for Tumor Volume (mm^3) 7 days: day 7, oral daily: compound 30 10 mg/kg, 33, 34, 40, 42, 43 20 mg/kg; for Tumor Volume (mm^3) 11 days: day 11, oral daily: compound 30 10 mg/kg, 33, 34, 40, 42, 43 20 mg/kg; for Tumor Volume (mm^3) 14 days: day 14, oral daily: compound 30 10 mg/kg, 33, 34, 40, 42, 43 20 mg/kg; for Tumor Volume (mm^3) 18 days: day 18, oral daily: compound 30 10 mg/kg, 33, 34, 40, 42, 43 20 mg/kg
Description: For example, after 21 days of administration, the tumor volume of the representative compounds 30, 33, 34, 40, 42 and 43 decreased from the beginning of about 149 mm^3 to 3-39 mm^3.
The pharmacological experiments in vivo were performed on BALB/c nude mice that subcutaneously implanted NCI-H1975 lung cancer […] xenograft (CDX).
BALB/c nude mice, female, 6-8 weeks, weighted about 18-22 grams, the mice were kept in a special pathogen-free environment, and in a single ventilation cage (5 mice per cage). The bedding and water of all the cages were disinfected before use. All animals were free to obtain standard certified commercial laboratory diets. A total of 100 mice were purchased from Beijing Vital for research. The tumor tissue (20-30 mm^3) was implanted subcutaneously in the […] of each mouse for tumor growth. The experiment was started when the average tumor volume reached about 150-200 mm^3. The test compound was orally administered daily (compound 30 was administered at 10 mg/kg, compound 33, 34, 40, 42 and 43 were administered at 20 mg/kg and compound AZD9291 was administered continuously for 21 days at 5 mg/kg, the data were shown in Table 3). The tumor volume was measured twice a week with a two-dimensional caliper and the volume was measured in cubic millimeters and calculated by the following formula: V=V=0.5 a×b2, where a and b were the major and minor diameters of the tumor, respectively.

[3] = test system: human skin squamous cell A431 xenograft (CDX); test: Selectivity study in vivo, A431 xenograft (CDX) model; set-up: species or system BALB/c nude mice; conditions: Table 5 experiment, AZD9291 5 mg/kg; for Tumor Volume (mm^3) 4 days: day 4, oral once daily: 33, 34, 40, 42, 43 20 mg/kg; for Tumor Volume (mm^3) 11 days: day 11, oral once daily: 33, 34, 40, 42, 43 20 mg/kg; for Tumor Volume (mm^3) 18 days: day 18, oral once daily: 33, 34, 40, 42, 43 20 mg/kg
Description: In this model, the less inhibitory effect on the tumor, the better the selectivity in vivo.
The selective experiments in vivo were performed on BALB/c nude mice that subcutaneously implanted human skin squamous cell A431 xenograft (CDX).
BALB/c nude mice, female, 6-8 weeks, weighted about 18-20 grams, the mice were kept in a special pathogen-free environment and in a single ventilation cage (5 mice per cage). The bedding and water of all the cages were disinfected before use. All animals were free to obtain standard certified commercial laboratory diets. All mice were purchased from mice of Shanghai BK Laboratory Animal Co., LTD for research. The tumor tissue (20-30 mm^3) was implanted subcutaneously in the […] of each mouse for tumor growth. The experiment was started when the average tumor volume reached about 150-200 mm^3. The test compound was orally administered (compounds 17, 30, 37 and 38 were administered once daily at 20 mg/kg, the compound AZD9291 was administered once daily at 5 mg/kg, the compound CO-1686 was administered twice daily at 50 mg/kg, the compound Erlotinib was administered once daily at 75 mg/kg and the compound Afatinib was administered once daily at 7.5 mg/kg, 21 days of continuous administration. The data were shown in Table 4; compounds 33, 34, 40, 42 and 43 were administered once daily at 20 mg/kg and compound AZD9291 was administered once daily at5 mg/kg, 21 days of continuous administration. The tumor volume was measured twice a week with a two-dimensional caliper and the volume was measured in cubic millimeters and calculated by the following formula: V=V=0.5 a×b2, where a and b were the major and minor diameters of the tumor, respectively.

T1 sequence (P00533 25-1210): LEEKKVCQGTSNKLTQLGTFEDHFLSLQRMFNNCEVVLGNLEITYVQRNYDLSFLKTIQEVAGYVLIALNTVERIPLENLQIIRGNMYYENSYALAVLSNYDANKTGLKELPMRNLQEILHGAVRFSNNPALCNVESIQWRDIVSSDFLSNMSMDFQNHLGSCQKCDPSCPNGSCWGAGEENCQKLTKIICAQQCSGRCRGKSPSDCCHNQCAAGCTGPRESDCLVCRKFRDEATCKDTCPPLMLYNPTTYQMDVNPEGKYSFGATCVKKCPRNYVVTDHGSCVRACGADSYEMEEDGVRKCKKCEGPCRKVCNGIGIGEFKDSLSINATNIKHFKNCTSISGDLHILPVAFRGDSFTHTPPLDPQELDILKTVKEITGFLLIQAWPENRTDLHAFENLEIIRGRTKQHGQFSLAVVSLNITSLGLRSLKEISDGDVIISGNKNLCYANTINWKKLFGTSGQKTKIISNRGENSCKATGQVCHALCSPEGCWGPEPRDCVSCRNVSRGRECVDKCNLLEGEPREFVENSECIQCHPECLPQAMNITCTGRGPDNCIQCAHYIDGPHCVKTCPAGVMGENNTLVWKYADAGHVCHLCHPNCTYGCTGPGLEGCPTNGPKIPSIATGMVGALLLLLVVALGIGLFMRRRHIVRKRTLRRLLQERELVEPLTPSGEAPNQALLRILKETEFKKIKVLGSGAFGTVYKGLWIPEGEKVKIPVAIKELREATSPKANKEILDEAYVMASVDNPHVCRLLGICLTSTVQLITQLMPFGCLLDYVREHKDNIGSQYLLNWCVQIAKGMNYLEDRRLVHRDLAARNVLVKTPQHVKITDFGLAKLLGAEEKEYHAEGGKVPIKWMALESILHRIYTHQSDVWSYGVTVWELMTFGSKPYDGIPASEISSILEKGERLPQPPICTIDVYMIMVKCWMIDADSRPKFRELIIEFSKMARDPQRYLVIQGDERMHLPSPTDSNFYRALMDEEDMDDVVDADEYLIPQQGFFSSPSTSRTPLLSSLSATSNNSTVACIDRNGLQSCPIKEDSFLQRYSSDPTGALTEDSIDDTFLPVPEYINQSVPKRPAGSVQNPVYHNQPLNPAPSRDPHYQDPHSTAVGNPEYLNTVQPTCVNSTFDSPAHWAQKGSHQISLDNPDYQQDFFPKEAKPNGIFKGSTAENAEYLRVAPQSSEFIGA

Row | IC50 (EGFR wild type) [nM] | IC50 (EGFR T790M/L858R) [nM] | IC50 (EGFR d746-750/T790M) [nM] | IC50 [1] [nM] | IC50 (A431 cells EGFR WT) [nM] | IC50 (INSR) [nM] | Compound | A431:NCI-H1975 (ratio) (A431 cells EGFR WT) | Tumor Volume (mm^3) 4 days [2] [mm^3] | Tumor Volume (mm^3) 7 days [2] [mm^3] | Tumor Volume (mm^3) 11 days [2] [mm^3] | Tumor Volume (mm^3) 14 days [2] [mm^3] | Tumor Volume (mm^3) 18 days [2] [mm^3] | Tumor Volume (mm^3) 4 days [3] [mm^3] | Tumor Volume (mm^3) 11 days [3] [mm^3] | Tumor Volume (mm^3) 18 days [3] [mm^3]
1 | 1.9 | 0.2 | 0.18 | 7 | 518 | 633 | C=CC(=O)Nc1cc(Nc2nccc(-c3c4n(c5ccccc35)CCOC4)n2)c(OC)cc1N(C)CCN(C)CC [Embodiment 18, N-(5-((4-(3,4-Dihydro-1H-[1,4]oxazino[4,3-a]indol-10-yl)pyrimidin-2-yl)amino)-2-((2-(ethyl(methyl)amino)ethyl)(methyl)amino)-4-methoxyphenyl)acrylamide] | 74 |  |  |  |  |  |  |  | 
2 |  |  |  | 264 | 548 |  | C=CC(=O)Nc1cc(Nc2nccc(-c3cn4c5c(cccc35)OC3(CC3)C4)n2)c(OC)cc1N(C)CC(C)(C)N(C)C [Embodiment 43, N-(5-((4-(3H-Spiro[[1,4]oxazino[2,3,4-hi]indole-2,1′-cyclopropan]-6-yl)pyrimidin-2-yl)amino)-2-((2-(dimethylamino)-2-methylpropyl)(methyl)amino)-4-methoxyphenyl)acrylamide] | 2.1 | 92 | 65 | 61 | 45 | 23 | 238 | 516 | 820
3 | 2 | 0.8 | 0.6 | 68 | 2100 |  | C=CC(=O)Nc1cc(Nc2ncc(F)c(-c3c4n(c5cc(Cl)ccc35)CCOC4)n2)c(OC)cc1N(C)CCN(C)C [Embodiment 34, N-(5-((4-(7-Chloro-3,4-dihydro-1H-[1,4]oxazino[4,3-a]indol-10-yl)-5-fluoropyrimidin-2-yl)amino)-2-((2-(dimethylamino)ethyl)(methyl)amino)-4-methoxyphenyl)acrylamide] | 31 | 102 | 80 | 70 | 59 | 35 | 237 | 646 | 1357
4 | 0.8 | 0.2 | 0.2 | 177 | 846 |  | C=CC(=O)Nc1cc(Nc2nccc(-c3cn4c5c(cccc35)OC3(CC3)C4)n2)c(OC)cc1N(C)CCN(C)C [Embodiment 42, N-(5-((4-(3H-Spiro[[1,4]oxazino[2,3,4-hi]indole-2,1′-cyclopropan]-6-yl)pyrimidin-2-yl)amino)-2-((2-(dimethylamino)ethyl)(methyl)amino)-4-methoxyphenyl)acrylamide] | 4.8 | 85 | 69 | 57 | 47 | 20 | 226 | 424 | 661
5 | 0.8 | 0.3 | 0.4 | 23 | 279 |  | C=CC(=O)Nc1cc(Nc2nccc(-c3cn4c5c(cccc35)OCCC4)n2)c(OC)cc1N(C)CCN(C)C [Embodiment 40, N-(5-((4-(3,4-Dihydro-2H-[1,4]oxazepino[2,3,4-hi]indol-7-yl)pyrimidin-2-yl)amino)-2-((2-(dimethylamino)ethyl)(methyl)amino)-4-methoxyphenyl)acrylamide] | 12 | 108 | 85 | 91 | 91 | 84 | 212 | 445 | 895
